From paper PMC5814585, “Modulators of actin-myosin dissociation: basis for muscle type functional differences during fatigue” (American Journal of Physiology - Cell Physiology, 2017)
Where “and” joins values, the source holds several entries; their conditions need not be identical. Identical values can stand only once.

Legend:
[1] = target: T1, actin.MassS1 (Bos taurus, UniProt Q9BE39); test: ADP release rate constant (k-AD), ADP displacement by excess ATP; format: biochemical, bovine; set-up: effect of Pi on kobs of ADP release / increase in kobs of ADP release in the presence of phosphate / activation energy (Ea) of k−AD (ADP release): dose or concentration left out as unconfirmed; settings: for kobs of ADP release (fast phase): 75 µM ADP displaced by 8 mM ATP; for activation energy (Ea) of k−AD (ADP release): Mass
T1 construct: from tissue; host or cells: bovine masseter muscle (myosin); rabbit muscle (actin)
Protocol: Two types of myosins were studied which are known to differ in their dissociation constant for nucleotides ([5], [51]). The rate constant for the release of ADP (k−ADP) is relatively slow for masseter S1 and can easily be measured in an ADP displacement experiment. This step is very fast for a fast muscle isoform and too fast to measure by current equipment. Briefly, actin.^MassS1 saturated with 75 µM of ADP (A.M.D complex) was mixed with a large excess of ATP (8 mM) in the stopped flow. Then the kobs values, fitted to a single exponential equation (Eqn 1) defined the rate constant by which ADP is released by the ternary A.M.D complex (k−AD).
The temperature dependence of the above studied biochemical steps K1k+2, KADP, KPi, and KADP+Pi data were plotted as the natural logarithm of the measured parameter against the reciprocal of temperature in degrees Kelvin (1/T °K) and fitted with linear regression using the Arrhenius (rate constants) or Van’t Hoff (equilibrium constants) equations(7)) lnK1k+2=ln(A)−Ea/RT (8)) lnKeq=ΔS°/R−ΔH°/RT where Ea stands for activation energy, R is the gas constant, and A is a preexponential factor. The values of –Ea/R or or ΔH°/R were derived from the slopes.

[2] = target: T1, actin.MassS1; set-up: method as in Bloemink et al. (4); settings: ref Bloemink et al. (4); cited from earlier work
[3] = target: T1, actin.MassS1; test: ADP dissociation constant in the presence of phosphate (KADP+Pi) and calculated KPi app, masseter; format: binding, bovine; settings: 15 mM Pi
[4] = system: actin.PsoS1; test: ADP dissociation constant (KADP) by competitive inhibition of ATP-induced dissociation, psoas; format: binding, rabbit; settings: for kobs of ATP-induced dissociation with ADP present: 25 µM ATP, 20°C
Protocol: In a similar process, ADP dissociation constant (KADP), which defines ADP affinity for actin.S1, was measured by adding to the mixture ADP as a competitive inhibitor of ATP binding. […] This approach assumes that ADP is in rapid equilibrium with the actin.S1 complex on the time scale of the ATP-induced dissociation reaction. This was ensured by using the low (25 µM) concentration of ATP. That this assumption holds was tested by repeating the measurement with ADP preincubated with actin.S1 and then mixing with ATP. The observed rate constants were identical in each case.
(§1) (4)) kobs=K1k+2[ATP]/[1+([I]/KI)]

[5] = target: actin.PsoS1; test: ADP dissociation constant in the presence of phosphate (KADP+Pi) and calculated KPi app, psoas; format: binding, rabbit; settings: 30 mM Pi
[6] = target: T1, actin.MassS1; test: ADP dissociation constant (KADP) by competitive inhibition of ATP-induced dissociation, masseter; format: binding, bovine; settings: for kobs of ATP-induced dissociation with ADP present: 25 µM ATP, 20°C, pH 7.0
Protocol: In a similar process, ADP dissociation constant (KADP), which defines ADP affinity for actin.S1, was measured by adding to the mixture ADP as a competitive inhibitor of ATP binding. In this case it is convenient to add the ADP to the ATP solution, i.e., 0.5 µM pyr.actin.S1 was mixed with 25 µM ATP with various concentrations of ADP present with the ATP (from 0 to 1200 µM). This approach assumes that ADP is in rapid equilibrium with the actin.S1 complex on the time scale of the ATP-induced dissociation reaction. This was ensured by using the low (25 µM) concentration of ATP. That this assumption holds was tested by repeating the measurement with ADP preincubated with actin.S1 and then mixing with ATP. The observed rate constants were identical in each case.
as §1

For `Nc1ncnc2c1ncn2[C@@H]1O[C@H](COP(=O)(O)OP(=O)(O)O)[C@@H](O)[C@H]1O` [ADP], the “kobs of ADP release (fast phase)” value ([1]; pH 7.0, 5°C) was 16.2 s⁻¹, the “kobs of ADP release (fast phase)” value ([1]; pH 7.0, 10°C) was 26.0 s⁻¹ and the “kobs of ADP release (fast phase)” value ([1]; pH 7.0, 20°C) was 85 s⁻¹ and 85.0 s⁻¹. For the same molecule, the “kobs of ADP release (fast phase)” value ([1]; pH 7.0, 30°C) was 273 s⁻¹, the “kobs of ADP release (fast phase)” value ([1]; pH 7.0, […]°C) was 46.3 s⁻¹ and the “activation energy (Ea) of k−AD (ADP release)” value (shortened to “activation energy (Ea) of k−AD”) ([1]; pH 6.2, + […] mM Pi) was 21.2 ± 0.932 kcal/mol. The “activation energy (Ea) of k−AD” value ([1]; pH 6.2, no Pi) was 20.2 ± 1.46 kcal/mol, the “activation energy (Ea) of k−AD” value ([1]; pH 7.0, + […] mM Pi) was 22.6 ± 1.2 kcal/mol and the “activation energy (Ea) of k−AD” value ([1]; pH 7.0, no Pi) was 18.1 ± 0.98 kcal/mol. The “kobs of ADP release, published result” value [2] was 94 s⁻¹, the Kd ([3]; Masseter S1, pH 6.2, 10°C) was 52.2 ± 4.2 µM and the Kd ([3]; Masseter S1, pH 6.2, 20°C) was 82.6 ± 5.7 µM. For the same molecule, the Kd ([3]; Masseter S1, pH 6.2, 30°C) was 175 µM, the Kd ([3]; Masseter S1, pH 7.0, 10°C) was 22.5 ± 2.9 µM and the Kd ([3]; Masseter S1, pH 7.0, 20°C) was 44.4 ± 4.6 µM. For the same molecule, the Kd ([3]; Masseter S1, pH 7.0, 30°C) was 79.3 ± 6.5 µM, the “kobs of ATP-induced dissociation with ADP present” value (“kobs of ATP-induced dissociation” for short) ([4]; 0.25 mM ADP, pH 7.0) was 45.9 s⁻¹ and the “kobs of ATP-induced dissociation” value ([4]; 1 mM ADP, pH 7.0) was 21.4 s⁻¹. The “kobs of ATP-induced dissociation” value ([4]; 4 mM ADP, pH 7.0) was 14.5 s⁻¹, the Kd ([4]; Psoas S1, pH 6.2, 10°C, read-out: KADP) was 256 ± 32 µM and the Kd ([4]; Psoas S1, pH 6.2, 20°C, read-out: KADP) was 228 ± 36 µM. The Kd ([4]; Psoas S1, pH 6.2, 30°C, read-out: KADP) was 236 ± 29 µM, the Kd ([4]; Psoas S1, pH 7.0, 10°C, read-out: KADP) was 201 ± 34 µM and the Kd ([4]; Psoas S1, pH 7.0, 20°C, read-out: KADP) was 203 ± 13 µM. It also gave a Kd ([4]; Psoas S1, pH 7.0, 30°C, read-out: KADP) of 232 ± 29 µM, a Kd ([4]; psoas actin.S1, between 10 and 30°C, pH 7.0, read-out: ADP affinity (KADP)) of roughly 200 µM and a Kd ([5]; Psoas S1, pH 6.2, 10°C, read-out: KADP+Pi) of 665 ± 39 µM. For the same molecule, the Kd ([5]; Psoas S1, pH 6.2, 20°C, read-out: KADP+Pi) was 514 µM, the Kd ([5]; Psoas S1, pH 6.2, 30°C, read-out: KADP+Pi) was 926 ± 73 µM and the Kd ([5]; Psoas S1, pH 7.0, 10°C, read-out: KADP+Pi) was 770 ± 37 µM. The Kd ([5]; Psoas S1, pH 7.0, 20°C, read-out: KADP+Pi) was 919 ± 72 µM, the Kd ([5]; Psoas S1, pH 7.0, 30°C, read-out: KADP+Pi) was 942 µM and 1020 µM and the Kd ([5]; psoas, 10–20°C, pH 7.0, read-out: apparent KADP in the presence of Pi) was roughly 500 µM. For the same molecule, the “kobs of ATP-induced dissociation” value ([6]; 25 µM ADP) was 21.7 s⁻¹, the “kobs of ATP-induced dissociation” value ([6]; 100 µM ADP) was 9.1 s⁻¹ and the “kobs of ATP-induced dissociation” value ([6]; 500 µM ADP) was 2.6 s⁻¹. The “weakening of KADP at pH 6.2 vs pH 7.0” value ([6]; MassS1, 30°C) was 1.5 fold, the Kd ([6]; Masseter S1, pH 6.2, 10°C) was 22 µM and 21.8 µM and the Kd ([6]; Masseter S1, pH 6.2, 20°C) was 48.4 µM and 47 µM and 46.8 µM. The Kd ([6]; Masseter S1, pH 6.2, 30°C) was 83.9 ± 4.7 µM, the Kd ([6]; Masseter S1, pH 7.0, 10°C) was 9.6 µM and 10 µM and 10.3 µM and the Kd ([6]; Masseter S1, pH 7.0, 20°C) was 31 µM and 31.3 µM and 29.7 µM. It also gave a Kd ([6]; Masseter S1, pH 7.0, 30°C) of 56.2 ± 6.5 µM.
